The structures appear in SMILES notation.

Series [1] addresses Norephinephrine transporter (Homo sapiens, UniProt P23975). Description: Lead profiling screen. The series is classed as binding.
The target in a further series is T1, UT (Homo sapiens, UniProt Q9UKP6).
T1 sequence (Q9UKP6 1-389): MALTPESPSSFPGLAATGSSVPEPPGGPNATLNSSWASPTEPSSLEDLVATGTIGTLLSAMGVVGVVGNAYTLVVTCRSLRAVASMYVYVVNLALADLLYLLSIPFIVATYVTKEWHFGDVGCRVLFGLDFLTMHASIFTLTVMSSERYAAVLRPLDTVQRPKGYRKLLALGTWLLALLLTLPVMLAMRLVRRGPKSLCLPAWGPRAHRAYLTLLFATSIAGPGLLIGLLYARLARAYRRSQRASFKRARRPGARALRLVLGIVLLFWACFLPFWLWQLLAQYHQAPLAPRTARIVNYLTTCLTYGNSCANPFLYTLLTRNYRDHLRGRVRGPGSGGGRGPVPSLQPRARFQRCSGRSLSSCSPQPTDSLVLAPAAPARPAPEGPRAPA
Briefly: Lead profiling screen. The format is binding. Conditions: for inhibition at 10 µM: UT, Human.

Another series concerns the target EP2 (Homo sapiens, UniProt P43116). Briefly: Lead profiling screen. The format is binding.
The target of series [2] is Serotonin (5-Hydroxytryptamine) 5-HT2A (Homo sapiens, UniProt P28223). Description: Lead profiling screen. The format is binding.
Series [3] deals with Serotonin (5-Hydroxytryptamine) 5-HT2B (Homo sapiens, UniProt P41595). Briefly: Lead profiling screen. The series is classed as binding. Conditions: for inhibition at 10 µM: 5-HT2B, Human.
The target of a further series is ctRAGE. Conditions: read-out: ctRAGE Kd; cited from earlier work.
The target of a further series is T2, Adenosine A3 (Homo sapiens, UniProt P0DMS8).
T2 sequence (P0DMS8 1-318): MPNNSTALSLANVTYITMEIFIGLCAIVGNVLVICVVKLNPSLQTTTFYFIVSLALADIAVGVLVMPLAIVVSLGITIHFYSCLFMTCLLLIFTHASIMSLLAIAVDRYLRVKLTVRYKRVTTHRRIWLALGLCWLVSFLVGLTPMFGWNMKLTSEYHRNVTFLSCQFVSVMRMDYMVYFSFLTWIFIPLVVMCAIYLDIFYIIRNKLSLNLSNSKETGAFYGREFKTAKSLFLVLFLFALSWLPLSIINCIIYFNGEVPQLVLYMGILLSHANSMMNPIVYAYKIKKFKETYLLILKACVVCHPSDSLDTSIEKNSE
Briefly: Lead profiling screen. Conditions: for inhibition at 10 µM: Adenosine A3, Human. The format is binding.

The next series deals with BZD (peripheral) (Rattus norvegicus, UniProt P16257). Description: Lead profiling screen. The format is binding. Conditions: for inhibition at 10 µM: BZD (peripheral) / TSPO, Rat.
The target of another series is Cyclooxygenase 1 (Homo sapiens, UniProt P23219). Description: Lead profiling screen, enzyme assay. The series is classed as biochemical.
For the next series, the target named is T3, AR (Homo sapiens, UniProt P10275).
T3 sequence (P10275 1-920): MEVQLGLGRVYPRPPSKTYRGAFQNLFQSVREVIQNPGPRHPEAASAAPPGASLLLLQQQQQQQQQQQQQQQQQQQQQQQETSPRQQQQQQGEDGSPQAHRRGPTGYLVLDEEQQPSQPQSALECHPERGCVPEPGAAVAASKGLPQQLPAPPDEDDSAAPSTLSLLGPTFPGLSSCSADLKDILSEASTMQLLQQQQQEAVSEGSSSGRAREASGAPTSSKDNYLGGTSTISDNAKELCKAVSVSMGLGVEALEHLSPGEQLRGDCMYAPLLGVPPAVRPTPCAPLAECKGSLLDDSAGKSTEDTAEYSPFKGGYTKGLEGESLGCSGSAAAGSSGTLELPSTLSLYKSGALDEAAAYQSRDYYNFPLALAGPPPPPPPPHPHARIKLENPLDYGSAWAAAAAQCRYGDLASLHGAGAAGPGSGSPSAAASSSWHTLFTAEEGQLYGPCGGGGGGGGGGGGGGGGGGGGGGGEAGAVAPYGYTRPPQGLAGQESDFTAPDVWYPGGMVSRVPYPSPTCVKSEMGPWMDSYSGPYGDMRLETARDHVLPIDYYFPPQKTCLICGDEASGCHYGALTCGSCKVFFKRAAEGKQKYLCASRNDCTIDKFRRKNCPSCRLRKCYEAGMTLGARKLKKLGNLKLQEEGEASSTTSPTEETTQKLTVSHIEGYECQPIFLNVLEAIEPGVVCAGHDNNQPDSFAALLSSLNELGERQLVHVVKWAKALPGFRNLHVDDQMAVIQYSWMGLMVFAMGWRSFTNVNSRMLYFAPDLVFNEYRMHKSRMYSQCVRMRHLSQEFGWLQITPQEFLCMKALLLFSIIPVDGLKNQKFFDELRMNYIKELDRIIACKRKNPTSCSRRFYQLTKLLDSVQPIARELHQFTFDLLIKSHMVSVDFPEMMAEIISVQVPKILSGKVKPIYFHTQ
Description: Lead profiling screen. The format is binding. Conditions: Rat.

A further series concerns BZD (central). Description: Lead profiling screen. Conditions: 10 μM, Rat. The format is binding.
For a further series, the target named is T4, Melatonin MT2 (Homo sapiens, UniProt P49286).
T4 sequence (P49286 1-362): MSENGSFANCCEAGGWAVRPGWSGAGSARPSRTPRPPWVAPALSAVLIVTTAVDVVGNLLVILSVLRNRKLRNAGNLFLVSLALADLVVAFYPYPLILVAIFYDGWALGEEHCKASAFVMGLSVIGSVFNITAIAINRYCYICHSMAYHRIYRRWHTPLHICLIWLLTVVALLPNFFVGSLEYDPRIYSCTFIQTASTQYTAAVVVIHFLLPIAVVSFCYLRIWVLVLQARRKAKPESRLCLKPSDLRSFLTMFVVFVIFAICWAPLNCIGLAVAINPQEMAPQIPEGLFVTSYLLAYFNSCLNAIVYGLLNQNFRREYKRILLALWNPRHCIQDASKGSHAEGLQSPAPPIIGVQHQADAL
Description: Lead profiling screen. The format is binding. Conditions: for inhibition at 10 µM: Melatonin MT2, Human.

Series [4] concerns Cl^- channel (GABA gated). Description: Lead profiling screen. The series is classed as binding. Conditions: 10 μM, Rat.
The target in a further series is Melatonin MT1 (Homo sapiens, UniProt P48039). Description: Lead profiling screen. The series is classed as binding.
Series [5] is described as follows: Nonhuman primate [18F]RAGER PET, melatonin blocking and displacement. Conditions: NHP.
A short description of series [6]: [18F]RAGER autoradiography, competitive binding with melatonin. Conditions: 10 μM melatonin; control, AD and DLB + AD brain tissue sections. More on the design: species or system human.
Series [7] is described as follows: Rodent [18F]RAGER PET, melatonin blocking. Conditions: 5 μg/kg i.v. 10 min prior to [18F]RAGER, healthy rodents.
A further series deals with T5, Androgen (Testosterone) (Homo sapiens, UniProt P10275).
T5 sequence (P10275 1-920): T3 sequence (P10275 1-920)
Description: Lead profiling screen. The series is classed as binding.

In series [8] the target is Transporter, Dopamine (DAT) (Homo sapiens, UniProt Q01959). Description: Lead profiling screen. The format is binding.
For series [9] the following is noted: cited from earlier work.
Series [10] has as its target Peripheral benzodiazepine receptor (Rattus norvegicus, UniProt P16257). Description: Lead profiling screen, RAGER. The series is classed as binding.

Chain of BZD (peripheral) (P16257 whole entry): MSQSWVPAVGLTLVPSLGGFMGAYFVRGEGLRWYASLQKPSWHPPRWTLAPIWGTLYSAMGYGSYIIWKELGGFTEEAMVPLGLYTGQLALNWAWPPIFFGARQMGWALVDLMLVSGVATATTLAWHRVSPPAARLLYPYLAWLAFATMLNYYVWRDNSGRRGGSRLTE
Chain of Serotonin (5-Hydroxytryptamine) 5-HT2B (P41595 whole entry): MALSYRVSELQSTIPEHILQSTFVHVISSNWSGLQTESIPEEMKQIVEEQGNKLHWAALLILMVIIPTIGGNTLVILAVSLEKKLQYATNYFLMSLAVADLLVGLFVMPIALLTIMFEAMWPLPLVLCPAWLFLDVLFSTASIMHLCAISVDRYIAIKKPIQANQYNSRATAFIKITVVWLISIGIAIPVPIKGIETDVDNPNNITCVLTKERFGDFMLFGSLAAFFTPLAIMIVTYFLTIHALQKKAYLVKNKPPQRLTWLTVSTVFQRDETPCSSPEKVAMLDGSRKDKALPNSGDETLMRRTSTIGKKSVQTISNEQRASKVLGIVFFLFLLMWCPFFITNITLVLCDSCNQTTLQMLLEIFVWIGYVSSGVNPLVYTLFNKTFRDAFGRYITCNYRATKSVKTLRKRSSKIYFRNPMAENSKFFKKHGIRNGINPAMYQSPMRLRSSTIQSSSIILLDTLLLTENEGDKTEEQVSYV
Chain of Melatonin MT1 (P48039 whole entry): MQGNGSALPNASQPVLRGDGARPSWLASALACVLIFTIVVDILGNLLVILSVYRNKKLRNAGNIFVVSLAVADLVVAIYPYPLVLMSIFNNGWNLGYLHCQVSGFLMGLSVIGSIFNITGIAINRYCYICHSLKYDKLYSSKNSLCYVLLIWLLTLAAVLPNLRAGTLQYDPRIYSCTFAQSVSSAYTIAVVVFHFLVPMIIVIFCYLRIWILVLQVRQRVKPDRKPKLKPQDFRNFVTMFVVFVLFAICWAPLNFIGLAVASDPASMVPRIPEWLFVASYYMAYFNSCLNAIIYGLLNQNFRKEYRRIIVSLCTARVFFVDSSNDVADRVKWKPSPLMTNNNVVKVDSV
Chain of Peripheral benzodiazepine receptor (P16257 whole entry): as the sequence (P16257 whole entry) above
Chain of Transporter, Dopamine (DAT) (Q01959 whole entry): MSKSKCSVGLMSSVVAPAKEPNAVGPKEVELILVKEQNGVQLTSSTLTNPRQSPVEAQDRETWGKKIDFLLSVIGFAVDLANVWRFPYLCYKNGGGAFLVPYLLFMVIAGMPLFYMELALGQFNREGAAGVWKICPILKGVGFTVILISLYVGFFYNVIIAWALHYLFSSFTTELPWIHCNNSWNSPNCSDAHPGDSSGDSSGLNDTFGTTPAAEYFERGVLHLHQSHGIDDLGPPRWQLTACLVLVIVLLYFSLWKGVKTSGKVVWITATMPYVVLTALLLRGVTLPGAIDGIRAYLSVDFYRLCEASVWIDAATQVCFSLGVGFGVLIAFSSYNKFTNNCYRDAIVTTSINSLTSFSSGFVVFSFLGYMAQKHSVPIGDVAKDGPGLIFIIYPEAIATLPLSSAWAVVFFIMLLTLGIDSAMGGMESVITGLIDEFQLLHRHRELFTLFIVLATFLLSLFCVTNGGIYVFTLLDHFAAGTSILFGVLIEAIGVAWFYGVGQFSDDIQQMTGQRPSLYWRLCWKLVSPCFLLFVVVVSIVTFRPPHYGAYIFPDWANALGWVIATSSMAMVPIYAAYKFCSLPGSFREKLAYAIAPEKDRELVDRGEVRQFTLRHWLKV
Chain of EP2 (P43116 whole entry): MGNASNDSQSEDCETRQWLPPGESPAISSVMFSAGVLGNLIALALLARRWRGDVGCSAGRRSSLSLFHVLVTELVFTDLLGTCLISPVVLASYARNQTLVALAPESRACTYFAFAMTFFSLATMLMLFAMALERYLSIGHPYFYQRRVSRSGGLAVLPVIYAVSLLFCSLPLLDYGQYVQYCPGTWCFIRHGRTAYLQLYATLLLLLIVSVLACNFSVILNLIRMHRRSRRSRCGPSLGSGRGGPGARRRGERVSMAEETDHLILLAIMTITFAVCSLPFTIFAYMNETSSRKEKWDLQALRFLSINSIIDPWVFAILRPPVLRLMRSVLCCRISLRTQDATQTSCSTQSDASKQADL
Chain of Norephinephrine transporter (P23975 whole entry): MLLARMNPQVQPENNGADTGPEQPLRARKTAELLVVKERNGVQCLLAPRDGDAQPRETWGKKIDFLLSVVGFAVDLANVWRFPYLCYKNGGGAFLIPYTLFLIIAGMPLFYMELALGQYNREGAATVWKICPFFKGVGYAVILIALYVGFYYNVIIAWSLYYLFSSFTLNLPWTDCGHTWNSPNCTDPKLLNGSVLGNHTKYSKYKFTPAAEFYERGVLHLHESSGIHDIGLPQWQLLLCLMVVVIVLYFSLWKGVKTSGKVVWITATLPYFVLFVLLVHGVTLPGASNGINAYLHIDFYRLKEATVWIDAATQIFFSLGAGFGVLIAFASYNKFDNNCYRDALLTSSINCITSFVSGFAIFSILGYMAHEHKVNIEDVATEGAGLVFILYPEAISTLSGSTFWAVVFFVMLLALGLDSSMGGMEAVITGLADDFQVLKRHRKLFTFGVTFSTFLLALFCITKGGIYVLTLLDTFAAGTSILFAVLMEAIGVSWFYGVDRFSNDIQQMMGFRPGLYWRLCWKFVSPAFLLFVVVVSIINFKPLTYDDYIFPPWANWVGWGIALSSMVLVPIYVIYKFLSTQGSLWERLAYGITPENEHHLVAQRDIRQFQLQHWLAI
Chain of Serotonin (5-Hydroxytryptamine) 5-HT2A (P28223 whole entry): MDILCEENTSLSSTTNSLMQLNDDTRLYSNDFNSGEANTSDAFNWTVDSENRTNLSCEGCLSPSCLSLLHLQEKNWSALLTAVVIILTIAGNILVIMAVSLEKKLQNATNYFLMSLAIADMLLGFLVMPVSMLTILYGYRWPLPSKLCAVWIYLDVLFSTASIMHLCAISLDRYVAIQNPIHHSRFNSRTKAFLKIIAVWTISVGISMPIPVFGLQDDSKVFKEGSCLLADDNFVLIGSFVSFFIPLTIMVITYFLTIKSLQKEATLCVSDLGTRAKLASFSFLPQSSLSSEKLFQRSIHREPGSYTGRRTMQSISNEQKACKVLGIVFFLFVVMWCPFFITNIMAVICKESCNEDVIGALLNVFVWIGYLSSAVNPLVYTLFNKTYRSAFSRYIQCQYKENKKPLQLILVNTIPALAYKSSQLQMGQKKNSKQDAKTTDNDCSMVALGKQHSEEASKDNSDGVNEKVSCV
Chain of Cyclooxygenase 1 (P23219 24-599, species assumed): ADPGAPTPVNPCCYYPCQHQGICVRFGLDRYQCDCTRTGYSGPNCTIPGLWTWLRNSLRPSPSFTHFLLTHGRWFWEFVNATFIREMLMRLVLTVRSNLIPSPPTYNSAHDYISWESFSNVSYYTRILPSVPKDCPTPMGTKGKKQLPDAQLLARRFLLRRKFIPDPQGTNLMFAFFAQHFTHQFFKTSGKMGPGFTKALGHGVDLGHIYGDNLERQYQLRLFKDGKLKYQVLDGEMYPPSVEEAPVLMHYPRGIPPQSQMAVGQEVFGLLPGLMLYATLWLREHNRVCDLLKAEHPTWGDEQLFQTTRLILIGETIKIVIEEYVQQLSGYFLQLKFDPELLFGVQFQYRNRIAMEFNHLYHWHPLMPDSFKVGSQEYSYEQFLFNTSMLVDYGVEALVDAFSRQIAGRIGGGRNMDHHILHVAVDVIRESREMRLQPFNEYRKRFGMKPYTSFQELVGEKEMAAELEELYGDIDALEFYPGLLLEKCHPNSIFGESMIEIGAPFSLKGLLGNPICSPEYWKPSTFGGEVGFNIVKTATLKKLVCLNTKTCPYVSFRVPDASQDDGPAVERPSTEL

The Ki is a measure of affinity in units of concentration, obtained from inhibition or displacement. As usually defined, the inhibition is the change of the read-out against control, counted positive when it falls. In general, IC50 refers to the concentration that gives 50% inhibition. As a reminder, the Kd is the constant that tells how readily two partners part at equilibrium. For `Oc1cccc(Nc2nc(-c3ccc(F)cc3F)cs2)c1` [InRAGER, 3-((4-(2,4-difluorophenyl)thiazol-2-yl)amino)phenol], the Ki in series [1] came out at 1500 nM; at UT, 8900 nM; at EP2 it was 2300 nM; in series [2], 7800 nM; in series [3] it was 550 nM; at Adenosine A3, 24 nM. The same compound showed a Ki at BZD (peripheral) of 12000 nM. Besides, the inhibition at 10 µM in series [1] (10 μM, Norephinephrine transporter, Human) is 95%; against UT, 78%; at EP2 (10 μM, EP2, Human), 74%; in [3], 97%; against Adenosine A3 it was 99%. The IC50 at UT was 1400 nM; in [3] it was 260 nM; at BZD (peripheral) it was 480 nM. Also, the Kd on ctRAGE was 1 ± 0.5 nM.
With `COc1cc(NC(C)=O)c(Cl)cc1C(=O)Nc1nccs1` [InRAGER2, 4-Acetamido-5-chloro-2-methoxy-N-(thiazol-2-yl)benzamide], the IC50 against Cyclooxygenase 1 came to 12000 nM; on UT it was 1400 nM; in series [3], 260 nM; at Adenosine A3 it was 1400 nM; on BZD (peripheral) it was 480 nM. Besides, the Ki on UT came out at 1000 nM; in series [3] it was 130 nM; on Adenosine A3, 830 nM; at BZD (peripheral), 440 nM. For the same compound, the inhibition at 10 µM turned out to be 85% against UT, 95% in [3], 75% against Adenosine A3 and 81% against BZD (peripheral). Besides, on ctRAGE, the Kd was 0.3 ± 0.05 nM.
As usually defined, the % Inhibition is the drop in the measured response relative to a control, in per cent. `O=C(c1ccc(Cl)cc1)N(Cc1ccccc1)C1CCCCC1` [FPS-ZM1, N-Benzyl-N-cyclohexyl-4-chlorobenzamide]: the inhibition at 10 µM on AR is 88%; against Adenosine A3, 64%; at Melatonin MT2, 54%; against BZD (peripheral), 85%; against Melatonin MT1, 54%. In addition, the “% Inhibition” value is on record as 59% in the series with BZD (central) and 62% in series [4]. Further, the results for the IC50 against Melatonin MT2 and against Melatonin MT1 were 7000 nM and 1500 nM, respectively. In addition, the Ki at Melatonin MT2 is 4400 nM; on Melatonin MT1, 1200 nM.
`COc1ccc2[nH]cc(CCNC(C)=O)c2c1` [Melatonin]: the “change in radioligand uptake, maximal SUV, TAC shape vs baseline (blocking)” value in series [5] (5 μg/kg i.v. 10 min prior to [18F]RAGER) was “did not reveal any decrease”. Moreover, in series [5] (10 μg/kg i.v. 40 min into the 90 min scan), the “maximal SUV or TAC shape vs baseline (displacement)” value is given as “did not differ significantly”. The “displacement of [18F]RAGER” value in series [6] is reported as “not able to displace”. For the same compound, the “effect on [18F]RAGER uptake or washout compared to baseline” value in series [7] is on record as “no effect”.
For `O=C(c1ccc(F)cc1)N(Cc1ccccc1)C1CCCCC1` [RAGER, N-Benzyl-N-cyclohexyl-4-fluorobenzamide], the Ki on Androgen (Testosterone) was 2600 nM; in series [8] it was 6800 nM; on Melatonin MT2, 700 nM; in series [10], 8500 nM; at Melatonin MT1, 93 nM. For the same compound, the inhibition at 10 µM was 59% at Androgen (Testosterone); 52% in series [8]; 82% at Melatonin MT2; 64% in series [10] (read-out: %Inhibition at 10 μM); 96% at Melatonin MT1. For the same compound, in [9], the “experimental log P” value is 3.5.

Values taken from paper PMC7591811 (Journal of Pharmaceutical Analysis, 2020).
